Measured values published in paper PMC11513920, “Building Metabolically Stable and Potent Anti-HIV Thioether-Lipid Analogues of Tenofovir Exalidex: A thorough Pharmacological Analysis” (Journal of Medicinal Chemistry, 2024).

Tests used:
[1] = Human liver microsome stability; conditions: for half-life at 3 μM / half-life at 2.083 h, 3 µM / remaining at 2 h, 3 μM: human; for remaining at 2 h, 3 μM: HLM % remaining; for remaining at 2 h, 3 μM / HLM % remaining: relative percent remaining of prodrug at 120 min
Protocol: Human liver microsomes (HLMs, 20 mg/mL) and CD-1 mouse liver microsomes (MLMs, 20 mg/mL) were purchased from Xenotech. NADPH was purchased from Sigma-Aldrich and prepared in 10 mM stock solutions of distilled H2O (Invitrogen UltraPure). […] Test compounds and positive controls were initially dissolved in MeOH to make 10 mM stock solutions. Sample solutions were then further diluted in 70/30 MeOH/H2O to 500 μM. Next, the reactions were prepared by mixing human or mouse liver microsomes (55 μL) with potassium phosphate buffer (100 mM, 928 μL) in 1.5 mL Eppendorf tubes. The test compounds (6.6 μL of 500 μM solution) were subsequently added to the suspensions, and the reaction mixtures were incubated at 37 °C for 5 min. Afterward, the liver microsome reactions were initiated with 110 μL of 10 mM NADPH and further incubated at 37 °C for the designated time course of the study. […] Each test compound was run in tandem with positive and negative control experiments for quality assurance. Positive control reactions were conducted at a final volume of 550 μL for a single run of each time point.
For both LM and plasma stability assays, each data point was analyzed in duplicate using in-between blank washes to avoid carry over and to equilibrate the column for the subsequent runs. Averages of these duplicate for individual compounds at each time point were then normalized to the data at 0 min, representing 100% test compound remaining or 0% metabolism. Half-lives (t1/2) were calculated by plotting ln of % test compound remaining versus time and performing linear regression to determine slope.
Metabolic Stability Assays
Liver Microsome Stability
Liver Microsome Stability Assay Setup Example
Quenching Mixture: 100 µL MeOH with ISTD (2 µM d5-7-ethoxycoumarin).
Final Volume After Quenching: 200 µL (100 µL from reaction mixture + 100 µL quencher
solution; ISTD final concentration of 1.0 µM).

[2] = Cellular cytotoxicity (cell viability, CellTiter 96 or resazurin); conditions: human, CC50, HEK293T cells, compounds formulated with HSA (5:1)
Protocol: (§9) Second, HIV IC50 and cellular CC50 were determined with a pseudoviral, whole (HEK293T) cell, nonreplicative HIV assay, using the HIV-1 subtype C strain MJ4 (refer to Experimental Methods). To account for the unique amphiphilic properties of TXL and the novel HTP-based prodrugs, all compounds were formulated in a human serum albumin (HSA) solution (5:1 drug:protein).
(§10) Assessment of cytotoxicity and antiviral activity of all final compounds in vitro was conducted according to previously reported procedures.[39] In summary, human embryonic kidney (HEK293T) cells maintained in high glucose (25 mM), Dulbecco’s modified Eagle’s medium (DMEM) supplemented with fetal bovine serum (10%), sodium pyruvate (1 mM), L-glutamine (2 mM), HEPES (25 mM), and gentamicin (50 μg/mL) were used for determinations. The cells were maintained in an incubator at 37 °C under 5% CO2 in a humidified atmosphere. For both cytotoxicity and antiviral screening, all compounds were evaluated in duplicate in at least two independent experiments. All final compounds were formulated with human serum albumin (HSA, 5:1 compound to HSA molar ratio) and subsequently diluted with complete DMEM to 200 μM. Fifty microliters of test compound serial dilutions (3-fold) were prepared in 96-well culture plates, after which 50 μL of HEK293T cells (2 × 10^4 cells/well) was added. […] Cytotoxicity was then assessed by quantifying cell viability using the CellTiter 96 Aqueous One Solution Cell Proliferation Assay (Promega, Madison, WI) or resazurin sodium salt (cat# R7017, Merck, Darmstadt, Germany).[61] […] Antiviral activity was then assessed using a single-cycle, nonreplicating, envelope deleted HIV pseudoviral in vitro assay.[62],[63] The assay relies on the introduction of the firefly luciferase gene into HEK293T cells through infection with HIV-like viral particles, containing Reverse Transcriptase (RT) and Integrase (IN) from the HIV-1 subtype C strain MJ4.[64] The expression of the luciferase in the cells is directly proportional to the level of infection by the HIV-like viral particles and can be used to assess the inhibition of HIV-1 RT and IN. To evaluate anti-HIV activity, 3-fold serial dilutions of all final compounds were prepared in 50 μL over the noncytotoxic concentration range (as determined from the cytotoxicity screens described above) in 96-well culture plates. HEK293T cells (2 × 10^4 cells/well) and HIV-like viral particles, standardized to produce a luminescence signal of 1 × 10^6 relative light units (RLUs) in the growth medium only control, were combined, and 50 μL was added to the wells containing serially diluted test compounds. […] The expression of luciferase was subsequently quantified by adding 100 μL of the Bright-Glo Luciferase Assay substrate (Promega, Madison, WI) to each well of the 96-well plates. After incubation at rt for 3 min, luminescence was quantified on the GloMax Explorer Multimode Microplate Reader (Promega, Madison, WI).

[3] = tested on: HEK293T cells; test: as above; conditions: HEK293T cells, 48 h, compounds formulated with HSA (5:1)
Protocol: as §9, §10

[4] = tested on: HIV-1 subtype C strain MJ4; test: Single-cycle non-replicating HIV pseudoviral luciferase assay in HEK293T cells; conditions: Human immunodeficiency virus 1, HEK-293T, read-out: HIV IC50
Protocol: as §9, §10

[5] = HepaRG cellular uptake; conditions: human, HepaRG Cmax, 20 μM, HSA formulation 5:1, recorded after 3 h incubation
Text: (§11) Naturally, due the metabolic complexity of HepaRG cells, we specifically analyzed prodrug cellular uptake and stability, as represented by Cmax and intrinsic clearance (Clint,u) accordingly (Figure 7 and Table 9).
(§12) The HepaRG cell line (HPRGC10, Thermo Fisher Scientific) was used to evaluate the cellular permeability and metabolic stability for select final compounds in vitro. The cells were initially thawed with working media composed of HepaRG Thaw, Plate, & General Purpose Medium Supplement (HPRG670), Williams Medium E (100 mL), and GlutaMax (1 mL), all purchased from Thermo Fisher Scientific. […] After the thawing medium was aspirated from each well, the cells were cultured for an additional 6 days with working media consisting of HepaRG Maintenance/Metabolism Medium Supplement (HPRG720), Williams Medium E (500 mL), and GlutaMax (1 mL), all purchased from Thermo Fisher Scientific. Upon completing the 7-day culture period, HepaRG cells were plated in enough wells to allow for duplicate analysis of prodrugs in two independent cellular uptake or metabolic stability experiments. All studied compounds were formulated with human serum albumin (HSA, 5:1 compound to HSA molar ratio) and subsequently diluted to a 20 μM final concentration with assay medium composed of serum-free INVITROGRO HI Medium and TORPEDO Antibiotic Mix purchased from BioIVT. For cellular uptake determinations, the maintenance/metabolism medium was first aspirated from each well, and then the plated cells were spiked with 1.0 mL of test compound stock solution. Subsequently, the plate was incubated at 37 °C under 5% CO2 environment over the desired time course (seven data points/compound). Blank wells not treated with prodrug were included in assay runs as controls and initial time points (0 min). At each time point, the test compound solution was removed from the appropriate wells, and the plated cells were washed with 1.0 mL of DPBS twice. The HepaRG cells were then extracted with 500 μL of cold ISTD solution (1 μM 7-ethoxy-d5-coumarin in 70/30 MeOH/H2O), and the quenched aliquots were centrifuged at 15,000 g for 10 min at 4 °C. […] After obtaining prodrug Cmax and Tmax values from the cellular uptake assay, HepaRG metabolic stability was then assessed. Following the initial 7-day culture procedure, the maintenance/metabolism medium was aspirated from each well, and the plated cells were spiked with 1.0 mL of test compound stock solution. […] The test compound solution was then removed from each well and replaced with untreated dilution medium (i.e., serum-free INVITROGRO HI Medium and TORPEDO Antibiotic Mix), initializing the stability determination. The HepaRG plate was once more incubated at 37 °C under 5% CO2 atmosphere over the desired time course (nine data points/compound), and sample preparation and analysis were handled in identical fashion to cellular uptake experiments.

[6] = tested on: HepaRG cells; test: HepaRG cellular uptake; conditions: 20 µM
Text: as §11, §12

[7] = HepaRG cellular metabolic stability; conditions: human, other cell line; for hepatocyte CLint at 20 μM: HepaRG Clint,u, calculated from cellular t1/2; for half-life at 20 μM: HepaRG t1/2, after 3 h loading at 20 μM, 37 °C
Text: as §11, §12

[8] = tested on: HepaRG cells; test: HepaRG cellular metabolic stability; conditions: for HepaRG t1/2: after 3 h loading at 20 μM, 37 °C
Text: as §11, §12

[9] = Human plasma stability; assay type: in vitro ADME; conditions: both sexes, human, plasma; 3 μM, 37 °C, 240 min course; read-out: human plasma t1/2
Protocol: (§1) Human plasma (lithium heparin (LiHep) mixed, gender pooled, 0.2 μm filtered) and mouse plasma (BALB/C, LiHep mixed, male pooled, 0.2 μm filtered) were purchased from BioIVT. Procaine (Sigma-Aldrich) served as a positive control for both human and mouse plasma experiments. […] Next, the human or mouse plasma (994 μL) was aliquoted into 1.5 mL Eppendorf tubes with duplicates (reactions A and B) being prepared for each compound. The plasma was then incubated at 37 °C for 10 min. […] This procedure provided duplicate experiments with a final volume of 1000 μL (<0.2% organic solvent content) and a final test compound concentration of 3 μM. Aliquots (100 μL) were removed from each reaction mixture at 0, 30, 60, 120, and 240 min time intervals and quenched with 150 μL of cold ISTD solution (2 μM 7-ethoxy-d5-coumarin in MeOH). […] The positive control reaction was conducted at a final volume of 1000 μL for a single run of each time point. Finally, the negative control experiment was conducted with test compounds in Dulbecco’s phosphate buffered saline without calcium and magnesium (DPBS, Fisher Scientific, 143 μL) and analyzed at the 240 min time point.
(§2) Plasma Stability Assay Setup Example
(§3) Test Compound: 994 µL Human or Mouse Plasma + 6.0 µL TC (500 µM, Vial A).
(§4) 994 µL Human or Mouse Plasma + 6.0 µL TC (500 µM, Vial B).
(§5) Positive Control: 994 µL Human or Mouse Plasma + 6.0 µL Procaine (500 µM).
(§6) Negative Control: 142 µL DPBS (1X, pH 7.1-7.3) + 0.9 µL TC (500 µM).
(§7) Quenching Mixture: 150 µL MeOH with ISTD (2 µM d5-7-ethoxycoumarin).
(§8) Final Volume After Quenching: 250 µL (100 µL from reaction mixture and 150 µL quencher
solution; ISTD final concentration of 1.2 µM).
Human Plasma Stability of Compound 2a at 37 °C
Figure S29. In vitro human plasma stability of 2a (5 points over 240 min) with procaine serving

[10] = Mouse plasma stability; assay type: in vitro ADME; conditions: male, BALB/C, mouse, plasma; 3 μM, 37 °C, 240 min course; read-out: mouse plasma t1/2
Protocol: as §1, §2, §3, §4, §5, §6, §7, §8
solution; ISTD final concentration of 1.2 µM). […]

[11] = microsomes, HLM t1/2, HLM 1 mg/mL, 3 μM compound, NADPH, 37 °C, 120 min course

Structure (SMILES) | half-life at 3 μM [1, 11] [h] | half-life at 2.083 h, 3 µM [1, 11] [h] | CC50 at 48 h [2] [µM] | also measured
CCCCCCCCCCCCCCCCCSCCOP(=O)(O)CO[C@H](C)Cn1cnc2c(N)ncnc21.N [2b] | 1.1 | 1.1 ± 0.0433 | 29 | CC50 [3]: 28.6 ± 3.7 µM
CCCCCCCCCCCCCSCCCCCCOP(=O)(O)CO[C@H](C)Cn1cnc2c(N)ncnc21.N [2c] | 1.1 | 1.1 ± 0.05 | > 100 | 
CCCCCCCCCCSCCCCCCCCCOP(=O)(O)CO[C@H](C)Cn1cnc2c(N)ncnc21.N [2d] |  | 0.222 ± 0.00833 | > 100 | 
CCCCCCCSCCCCCCCCCCCCOP(=O)(O)CO[C@H](C)Cn1cnc2c(N)ncnc21.N [2e] |  | 0.3433 ± 0.00167 | > 100 | 
CCCCSCCCCCCCCCCCCCCCOP(=O)(O)CO[C@H](C)Cn1cnc2c(N)ncnc21.N [2f] |  | 0.32833 ± 5e-05 | > 100 | 
CCCCCCCCCCCCSCCCOP(=O)(O)CO[C@H](C)Cn1cnc2c(N)ncnc21.N [2g] |  | 0.188 ± 0.00333 | > 100 | 
CCCCCCCCCCCCCCSCCCOP(=O)(O)CO[C@H](C)Cn1cnc2c(N)ncnc21.N [2h] |  | 0.26 ± 0.00167 | > 100 | 
C#CCCCCCCCCCCCCCCSCCCOP(=O)(O)CO[C@H](C)Cn1cnc2c(N)ncnc21 [15b] |  |  |  | half-life at 3 μM ([1]; liver microsomes): > 1.58 h; half-life at 2.083 h, 3 µM ([1]; liver microsomes): 1.6 ± 0.03 h; IC50 [4]: 0.024 to 0.028 µM
C[C@H](Cn1cnc2c(N)ncnc21)OCP(=O)(O)OCCCSCCCCCCCCCCCCC#C[Si](C)(C)C.N [15c] | > 1.58 |  | > 100 | HLM t1/2 ([1]; HLM 1 mg/mL, 3 μM compound, NADPH, 37 °C, 120 min course): > 2 h; remaining at 2 h, 3 μM ([1]; microsomes): 82%; IC50 [4]: 0.024 to 0.028 µM
CC(C)[Si](C#CCCCCCCCCCCCSCCCOP(=O)(O)CO[C@H](C)Cn1cnc2c(N)ncnc21)(C(C)C)C(C)C.N [15d] | > 2 |  | 59.3 ± 2.4 | remaining at 2 h, 3 μM ([1]; microsomes): > 95%
C[C@H](Cn1cnc2c(N)ncnc21)OCP(=O)(O)OCCCSCCCCCCCCCCCCC#CC(C)(C)C.N [15e] | > 2 |  | > 100 | remaining at 2 h, 3 μM ([1]; microsomes): 71%; Cmax at 3 h, 20 μM [5]: 242 ± 5.5 ng/mL; mean prodrug concentration in HepaRG cells ([6]; 0.5 h): 169.76 ng/mL; mean prodrug concentration in HepaRG cells ([6]; 1 h): 211.84 ng/mL; mean prodrug concentration in HepaRG cells ([6]; 2 h): 233.02 ng/mL; mean prodrug concentration in HepaRG cells ([6]; 3 h): 241.98 ng/mL; mean prodrug concentration in HepaRG cells ([6]; 4 h): 281.89 ng/mL; mean prodrug concentration in HepaRG cells ([6]; 6 h): 321.96 ng/mL; hepatocyte CLint at 20 μM [7]: 18 to 19 µL/min/1e6 cells; half-life at 20 μM [7]: 1.12 to 1.18 h; HepaRG t1/2 [8]: 1.11 ± 0.0833 h; HepaRG Clint,u ([8]; calculated from cellular t1/2): 18.9 μL/min/million cells; IC50 [4]: 0.196 µM
C[C@H](Cn1cnc2c(N)ncnc21)OCP(=O)(O)OCCCSCCCCCCCCCCC#Cc1ccccc1.N [15f] | 1.18 | 1.19 ± 0.0183 | > 100 | 
C[C@H](Cn1cnc2c(N)ncnc21)OCP(=O)(O)OCCCSCCCCCCCCCCC#Cc1ccc(F)cc1.N [15g] | > 2 |  | > 100 | remaining at 2 h, 3 μM ([1]; microsomes): 67%
C[C@H](Cn1cnc2c(N)ncnc21)OCP(=O)(O)OCCCSCCCCCCCCCCC#CC1CCCCC1.N [15h] | > 2 |  | > 100 | remaining at 2 h, 3 μM ([1]; microsomes): 67%; HLM % remaining [1]: 70%
C[C@H](Cn1cnc2c(N)ncnc21)OCP(=O)(O)OCCCSCCCCCCCCCCCCCCC(C)(C)C.N [16e] | > 2 |  | 24 ± 1.4 | remaining at 2 h, 3 μM ([1]; microsomes): 95%; HLM % remaining [1]: > 95%; Cmax at 3 h, 20 μM [5]: 1100 ± 63.6 ng/mL; mean prodrug concentration in HepaRG cells ([6]; 0.5 h): 625.22 ng/mL; mean prodrug concentration in HepaRG cells ([6]; 1 h): 984.12 ng/mL; mean prodrug concentration in HepaRG cells ([6]; 3 h): 1100.03 ng/mL; mean prodrug concentration in HepaRG cells ([6]; 4 h): 1000.18 ng/mL; mean prodrug concentration in HepaRG cells ([6]; 6 h): 1196.77 ng/mL; hepatocyte CLint at 20 μM [7]: 10.2 µL/min/1e6 cells; half-life at 20 μM [7]: 2.05 h; HepaRG t1/2 [8]: 2.052 ± 0.05 h; IC50 [4]: 0.177 µM
C[C@H](Cn1cnc2c(N)ncnc21)OCP(=O)(O)OCCCSCCCCCCCCCCCCc1ccccc1.N [16f] | 1.13 | 1.14 ± 0.00167 | > 100 | 
C[C@H](Cn1cnc2c(N)ncnc21)OCP(=O)(O)OCCCSCCCCCCCCCCCOc1ccccc1.N [23a] | 0.133 | 0.14 ± 0.00167 | > 100 | 
C[C@H](Cn1cnc2c(N)ncnc21)OCP(=O)(O)OCCCSCCCCCCCCCCCSc1ccccc1.N [23b] |  | 0.132 ± 0.00333 | > 100 | 
C[C@H](Cn1cnc2c(N)ncnc21)OCP(=O)(O)OCCCSCCCCCCCCCCCOc1ccc(F)cc1.N [23c] | 0.8 to 0.833 | 0.82833 ± 0.0005 | > 100 | 
C[C@H](Cn1cnc2c(N)ncnc21)OCP(=O)(O)OCCCSCCCCCCCCCCCOC1CCCCC1.N [23d] | 0.8 to 0.833 | 0.7983 ± 0.00667 | > 100 | 
COC(=O)CCCCCCCCCCCCCCCSCCCOP(=O)(O)CO[C@H](C)Cn1cnc2c(N)ncnc21.N [23e] |  | 0.0917 ± 0.005 | > 100 | 
CCN(CC)CCOC(=O)c1ccc(N)cc1 [Procaine, reference compound] |  |  |  | half-life at 3 μM [9]: 24 s; half-life at 3 μM [10]: 42 s
